Measurements: PubChem BioAssay AID1963828 (Molecular Pharmacology Branch, DTP, NCI, 2024)
pIC50: −log10 of the molar value.

Test system: 991263-137-R1-J2-PDC complex spheroid viability
Experiment: Anticancer human tumor 991263-137-R1-J2-PDC patient-derived colon adenocarcinoma cell line growth inhibition [POLQ]
Details: for pIC50: curve of first compound; for viability, T/C: stronger effect = lower value
Method: Multicellular complex tumor spheroid response to Polymerase (POL) inhibitors (novobiocin, ART-558, RP6685) in combination with a variety of drugs and investigational agents in selected tumor cell lines
The POL inhibitors (novobiocin, ART-558, and RP6685) were evaluated both individually and in combination with standard of care and investigational anticancer small molecules within a complex spheroid model of solid tumors. . Complex spheroids include a stromal component modeled by human endothelial cells (HUVEC) and fibroblasts modeled by human mesenchymal stem cells (MSCs). The concentration ranges selected for each drug and investigational agent were based upon clinically achievable concentrations if the clinical Cmax of the agent was known.
Compounds. The drugs and investigational agents: novobiocin (NSC847541), ART-558 (NSC835418), RP-6685 (NSC848927), peposertib (NSC802822), ceralasertib (NSC780249), elimusertib (NSC800525), camonsertib (NSC841442), AZD-1390 (NSC803789), olaparib (NSC753686), talazoparib (NSC767125), rucaparib (NSC756644), sotorasib (NSC818433), MRTX-1133 (NSC836407), SN-38 (NSC673596), topotecan (NSC609699), epotoside (NSC141540), doxorubicin (NSC123127), gemcitabine (NSC613327), 5-fluorouracil (NSC19893), paclitaxel (NSC125973), vemurafenib (NSC761431), MSA-2 (NSC828583), SN-011 (NSC837082), adavosertib (NSC754352), prexasertib (NSC758257), carboplatin (NSC241240) and oxaliplatin (NSC266046), were obtained from the National Cancer Institute (NCI) Developmental Therapeutics Program Chemical Repository (21). The FDA-approved anticancer drug set is available from the Developmental Therapeutics Program at https://dtp.cancer.gov/organization/dscb/obtaining/. […] The stock solutions were prepared in dimethyl sulfoxide (DMSO, Sigma-Aldrich, St. Louis, MO, cat. D2650), except for the platinum compounds which were prepared in saline (Quality Biological, Gaithersburg, MD, cat. 114-055-101), at 800-fold the tested concentration and stored at -70 degrees C prior to their use. All drugs and investigational agents were tested over a range starting from a high concentration at or near the clinical Cmax and decreasing in half-log increments. If the clinical Cmax for an agent had not been determined, the highest concentration tested was 10 microM, except for SN-38, which was tested at a high concentration of 1 microM.
Cell Culture. All cells were maintained in an incubator at 37 degrees C and 5% CO2 with 95% humidity. The PDC lines were cultured according to standard operating procedures established by the NCI PDMR (https://pdmr.cancer.gov). Table 3 of the manuscript, lists the cell lines along with the number of the three cell types plated to form the mct-spheroids and media for tumor cell growth. After thawing, all PDC lines, except 997537-175-T-J1-PDC and 415267-285-R-J2-PDC, were cultured in Matrigel-coated flasks prepared with a working solution of 1X Ham's F-12 nutrient mix, without supplementation (Thermo Fisher Scientific, cat. 11765054), 100 U/mL penicillin-streptomycin (Thermo Fisher Scientific, cat. 15140122), and 2.5% Matrigel (Corning Inc., Corning, NY, cat. 354248) for the first three passages. The two PDC lines 997537-175-T-J1-PDC and 415267-285-R-J2-PDC were cultured on uncoated flasks. The 857933-349-R-J2-PDC line was cultured in 6C/Colon 1B media containing advanced DMEM/F-12 (Thermo Fisher Scientific, cat. 12634028), 10 mM HEPES (Thermo Fisher Scientific, cat. 15630080), 1X GlutaMAX supplement (Thermo Fisher Scientific, cat. 35050061), 0.1 mg/mL primocin (InvivoGen, San Diego, CA, cat. ant-pm-2), 10% defined fetal bovine serum, heat inactivated (HyClone Laboratories Inc., Logan, UT, cat. SH30070.03HI), 50% L-WRN conditioned media (ATCC, cat. CRL-3276), 1.25 mM N-Acetyl-L-cysteine (Sigma-Aldrich, cat. A9165), 10 mM nicotinamide (Sigma-Aldrich, cat. N0636), 1X B-27 supplement (Thermo Fisher Scientific, cat. 17504044), 1X N-2 supplement (Thermo Fisher Scientific, cat. […]

[1] = second compound 0.0316 µM, first compound 0.00316 µM
[2] = second compound 0.0316 µM, first compound 0.01 µM
[3] = second compound 0.0316 µM, first compound 0.0316 µM
[4] = second compound 0.0316 µM, first compound 0.1 µM
[5] = second compound 0.0316 µM, first compound 0.316 µM
[6] = second compound 0.0316 µM, first compound 1 µM
[7] = second compound 0.1 µM, first compound 0.00316 µM
[8] = second compound 0.1 µM, first compound 0.01 µM
[9] = second compound 0.1 µM, first compound 0.0316 µM
[10] = second compound 0.1 µM, first compound 0.1 µM
[11] = second compound 0.1 µM, first compound 0.316 µM
[12] = second compound 0.1 µM, first compound 1 µM
[13] = second compound 0.316 µM, first compound 0.00316 µM
[14] = second compound 0.316 µM, first compound 0.01 µM
[15] = second compound 0.316 µM, first compound 0.0316 µM
[16] = second compound 0.316 µM, first compound 0.1 µM
[17] = second compound 0.316 µM, first compound 0.316 µM
[18] = second compound 0.316 µM, first compound 1 µM
[19] = second compound 1 µM, first compound 0.00316 µM
[20] = second compound 1 µM, first compound 0.01 µM
[21] = second compound 1 µM, first compound 0.0316 µM
[22] = second compound 1 µM, first compound 0.1 µM
[23] = second compound 1 µM, first compound 0.316 µM
[24] = second compound 1 µM, first compound 1 µM
[25] = second compound 3.16 µM, first compound 0.00316 µM
[26] = second compound 3.16 µM, first compound 0.01 µM
[27] = second compound 3.16 µM, first compound 0.0316 µM
[28] = second compound 3.16 µM, first compound 0.1 µM
[29] = second compound 3.16 µM, first compound 0.316 µM
[30] = second compound 3.16 µM, first compound 1 µM
[31] = second compound 10 µM, first compound 0.00316 µM
[32] = second compound 10 µM, first compound 0.01 µM
[33] = second compound 10 µM, first compound 0.0316 µM
[34] = second compound 10 µM, first compound 0.1 µM
[35] = second compound 10 µM, first compound 0.316 µM
[36] = second compound 10 µM, first compound 1 µM
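Also: spheroids exposed to compounds for 7 days before readout.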
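For viability, T/C in this document: 100% = DMSO vehicle control viability.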

## C=CCn1c(=O)c2cnc(Nc3ccc(N4CCN(C)CC4)cc3)nc2n1-c1cccc(C(C)(C)O)n1 + COC1C(OC(N)=O)C(O)C(Oc2ccc3c(O)c(NC(=O)c4ccc(O)c(CC=C(C)C)c4)c(=O)oc3c2C)OC1(C)C
Second compound 0.0316 µM
  pIC50: < 6.00
Second compound 0.1 µM
  pIC50: < 6.00
Second compound 0.316 µM
  pIC50: < 6.00
Second compound 1 µM
  pIC50: < 6.00
Second compound 3.16 µM
  pIC50: < 6.00
Second compound 10 µM
  pIC50: < 6.00
[1]
  viability, T/C: 116%
[2]
  viability, T/C: 115%
[3]
  viability, T/C: 105%
[4]
  viability, T/C: 107%
[5]
  viability, T/C: 95.6%
[6]
  viability, T/C: 101%
[7]
  viability, T/C: 94.2%
[8]
  viability, T/C: 109%
[9]
  viability, T/C: 91.1%
[10]
  viability, T/C: 97%
[11]
  viability, T/C: 108%
[12]
  viability, T/C: 77.4%
[13]
  viability, T/C: 102%
[14]
  viability, T/C: 110%
[15]
  viability, T/C: 92.6%
[16]
  viability, T/C: 97.8%
[17]
  viability, T/C: 100%
[18]
  viability, T/C: 108%
[19]
  viability, T/C: 85.1%
[20]
  viability, T/C: 100%
[21]
  viability, T/C: 96.8%
[22]
  viability, T/C: 98.7%
[23]
  viability, T/C: 104%
[24]
  viability, T/C: 98%
[25]
  viability, T/C: 111%
[26]
  viability, T/C: 81.2%
[27]
  viability, T/C: 119%
[28]
  viability, T/C: 105%
[29]
  viability, T/C: 115%
[30]
  viability, T/C: 93.4%
[31]
  viability, T/C: 98.1%
[32]
  viability, T/C: 107%
[33]
  viability, T/C: 102%
[34]
  viability, T/C: 92.5%
[35]
  viability, T/C: 110%
[36]
  viability, T/C: 105%

## CCc1c2c(nc3ccc(O)cc13)-c1cc3c(c(=O)n1C2)COC(=O)[C@]3(O)CC + COC1C(OC(N)=O)C(O)C(Oc2ccc3c(O)c(NC(=O)c4ccc(O)c(CC=C(C)C)c4)c(=O)oc3c2C)OC1(C)C
Second compound 0.0316 µM
  pIC50: 7.16
Second compound 0.1 µM
  pIC50: 7.26
Second compound 0.316 µM
  pIC50: 7.23
Second compound 1 µM
  pIC50: 7.17
Second compound 3.16 µM
  pIC50: 7.00
Second compound 10 µM
  pIC50: 7.23
[1]
  viability, T/C: 102%
[2]
  viability, T/C: 81%
[3]
  viability, T/C: 54.5%
[4]
  viability, T/C: 45.3%
[5]
  viability, T/C: 41.4%
[6]
  viability, T/C: 25.9%
[7]
  viability, T/C: 106%
[8]
  viability, T/C: 88.4%
[9]
  viability, T/C: 52.9%
[10]
  viability, T/C: 44%
[11]
  viability, T/C: 29.1%
[12]
  viability, T/C: 20.2%
[13]
  viability, T/C: 83.3%
[14]
  viability, T/C: 74.9%
[15]
  viability, T/C: 47.8%
[16]
  viability, T/C: 48.9%
[17]
  viability, T/C: 34.9%
[18]
  viability, T/C: 20.9%
[19]
  viability, T/C: 92.2%
[20]
  viability, T/C: 81%
[21]
  viability, T/C: 62.2%
[22]
  viability, T/C: 41.9%
[23]
  viability, T/C: 33.6%
[24]
  viability, T/C: 22.6%
[25]
  viability, T/C: 84.1%
[26]
  viability, T/C: 66.6%
[27]
  viability, T/C: 61.1%
[28]
  viability, T/C: 54.3%
[29]
  viability, T/C: 37.1%
[30]
  viability, T/C: 19.2%
[31]
  viability, T/C: 104%
[32]
  viability, T/C: 82.3%
[33]
  viability, T/C: 53.3%
[34]
  viability, T/C: 46.1%
[35]
  viability, T/C: 30.6%
[36]
  viability, T/C: 19.9%
